Experimental data as given in article PMC7440923, “Measuring protein stability in the GroEL chaperonin cage reveals massive destabilization” (eLife, 2020).
Each block holds one molecule with its values, some of them ahead of it.

What was measured:
[1] = biological target: T1, DHFRMp fused to eGFP (chimera), free in bulk solution (Moritella profunda, UniProt Q70YQ6); assay: differential scanning fluorimetry, SYPRO Orange; type: binding; conditions: 500 µM ligand, 5 µM chimera, working buffer pH 8.0; transition of the DHFRMp part
T1 construct: gene dyrA; N-terminal His7-eGFP (A206K)-linker with TEV site-DHFRMp at the C-terminus; fusion uncut; E. coli BL21; not encapsulated

purified protein = substrate: Nc1nc2c(c(=O)[nH]1)N=C(CNc1ccc(C(=O)N[C@@H](CCC(=O)O)C(=O)O)cc1)CN2; assay: purified protein; type: biochemical, Moritella profunda; conditions: 350 µM NADPH, 23 °C, working buffer (20 mM Hepes pH 8.0, 100 mM KCl, 50 mM MgCl2, 50 mM Na2SO4, 10 mM NaF, 1 mM BeSO4, 1 mM DTT), free chimera in bulk solution
GroEL = biological target: T2, GroEL (Escherichia coli, UniProt P0A6F5 1-548); assay: SEC; freshly assembled football complexes: acid-denatured eGFP added to GroEL and GroES oligomers in folding buffer, assembly started with Na2SO4, NaF, BeSO4 and ATP; gel-filtration in working buffer (20 mM Hepes pH 8.0, 100 mM KCl, 50 mM MgCl2, 50 mM Na2SO4, 10 mM NaF, 1 mM BeSO4, 1 mM DTT); A280 and A485, fractions by SDS-PAGE; conditions: both partners purified
T2 construct: GroEL chaperonin of the Escherichia coli GroE system; used as 'GroEL oligomer'; Expression and purification of GroEL are not described; also called GroEL oligomer
T2 sequence (P0A6F5 whole entry): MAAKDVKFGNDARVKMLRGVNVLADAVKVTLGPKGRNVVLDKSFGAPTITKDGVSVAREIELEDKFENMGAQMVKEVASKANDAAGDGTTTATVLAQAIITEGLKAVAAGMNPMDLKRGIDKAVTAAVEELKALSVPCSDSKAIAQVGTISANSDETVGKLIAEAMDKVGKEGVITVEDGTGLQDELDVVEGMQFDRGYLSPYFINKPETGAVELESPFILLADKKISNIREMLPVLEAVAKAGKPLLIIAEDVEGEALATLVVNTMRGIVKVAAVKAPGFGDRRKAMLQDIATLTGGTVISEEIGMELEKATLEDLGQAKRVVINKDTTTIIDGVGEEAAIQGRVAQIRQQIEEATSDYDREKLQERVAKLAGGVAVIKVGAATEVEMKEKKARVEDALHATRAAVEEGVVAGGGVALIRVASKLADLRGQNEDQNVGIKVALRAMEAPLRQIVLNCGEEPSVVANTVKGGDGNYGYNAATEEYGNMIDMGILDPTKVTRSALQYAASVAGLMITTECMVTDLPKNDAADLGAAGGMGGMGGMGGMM

increase in melting temperature (dTm) [1]: ~ 8 °C
Molecule: NC(=O)C1=CN([C@@H]2O[C@H](COP(=O)(O)OP(=O)(O)OC[C@H]3O[C@@H](n4cnc5c(N)ncnc54)[C@H](OP(=O)(O)O)[C@@H]3O)[C@@H](O)[C@H]2O)C=CC1 [NADPH]

increase in melting temperature (dTm) [1]: ~ 31 °C
Molecule: Nc1nc2c(c(=O)[nH]1)N=C(CNc1ccc(C(=O)N[C@@H](CCC(=O)O)C(=O)O)cc1)CN2 [dihydrofolate]

B1: DHFRMp fused to eGFP (chimera), free in bulk solution (Moritella profunda) (protein)
chain: MIVSMIAALANNRVIGLDNKMPWHLPAELQLFKRATLGKPIVMGRNTFESIGRPLPGRLNIVLSRQTDYQPEGVTVVATLEDAVVAAGDVEELMIIGGATIYNQCLAAADRLYLTHIELTTEGDTWFPDYEQYNWQEIEHESYAADDKNPHNYRFSLLERVK
notes: N-terminal His7-eGFP (A206K)-linker with TEV site-DHFRMp at the C-terminus; fusion uncut; E. coli BL21; not encapsulated
Km (purified protein): 33 (±2) µM

binding result (GroEL): binds
B2: GroES (natural protein, Escherichia coli, UniProt P0A6F9 1-97, looked up)
chain: MNIRPLHDRVIVKRKEVETKSAGGIVLTGSAAAKSTRGEVLAVGNGRILENGEVKPLDVKVGDIVIFNDGYGVKSEKIDNEEVLIMSESDILAIVEA
notes: GroES, co-factor of GroEL in the Escherichia coli GroE system; used as 'GroES oligomer'; Expression and purification of GroES are not described; also called GroES oligomer
